The species entered for experiment [1] is Bos taurus. Put plainly: Displacement of [3H]nitrobenzylthiosine from nucleoside transport protein in calf lung membrane at 10 uM. The experiment is classed as cell membranes. (In general: Loss of bound radioactivity is the signal in a displacement assay; it reports binding, not function.)
In another experiment the target is T1, Adenosine receptor A1 (Rattus norvegicus, UniProt P25099).
T1 sequence (P25099 whole entry): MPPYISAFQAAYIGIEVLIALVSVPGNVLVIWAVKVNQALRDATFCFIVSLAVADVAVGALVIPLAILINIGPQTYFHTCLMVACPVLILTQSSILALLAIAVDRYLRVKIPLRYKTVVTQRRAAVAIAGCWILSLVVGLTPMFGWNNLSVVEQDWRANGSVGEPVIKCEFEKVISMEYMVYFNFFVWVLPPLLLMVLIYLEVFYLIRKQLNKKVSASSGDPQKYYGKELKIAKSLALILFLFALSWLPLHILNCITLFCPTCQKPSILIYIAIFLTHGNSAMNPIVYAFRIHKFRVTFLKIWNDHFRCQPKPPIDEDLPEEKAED
The experiment is described as follows: Displacement of [3H]DPCPX from rat adenosine A1 receptor by liquid scintillation counting.

The target of experiment [2] is T2, Adenosine receptor A1 (Rattus norvegicus) (UniProt P25099).
T2 sequence (whole entry): T1 sequence (P25099 whole entry)
Put plainly: Displacement of [3H]DPCPX from rat adenosine A1 receptor at 0.1 mM by liquid scintillation counting.

For experiment [3], the target named is T2, Adenosine receptor A1 (Rattus norvegicus). Put plainly: Displacement of [3H]DPCPX from rat adenosine A1 receptor at 1 mM by liquid scintillation counting.
The species named for experiment [4] is Bos taurus. Put plainly: Displacement of [3H]nitrobenzylthiosine from nucleoside transport protein in calf lung membrane at 1 mM. The experiment is classed as cell membranes.
The species entered for experiment [5] is Rattus norvegicus. The experiment is described as follows: Displacement of [3H]naloxone from rat opioid receptor at 1 mM.
Experiment [6] addresses T2, Adenosine receptor A1 (Rattus norvegicus). Put plainly: Displacement of [3H]DPCPX from rat adenosine A1 receptor at 10 uM by liquid scintillation counting.
The species named for experiment [7] is Rattus norvegicus. The experiment is described as follows: Displacement of [3H]naloxone from rat opioid receptor at 0.1 mM.
The target in experiment [8] is T2, Adenosine receptor A1 (Rattus norvegicus). The experiment is described as follows: Displacement of [3H]DPCPX from rat brain adenosine A1 receptor at 56 uM assessed per mg of protein by saturation analysis.
The species entered for experiment [9] is Rattus norvegicus. The experiment is described as follows: Displacement of [3H]naloxone from rat opioid receptor at 10 uM.
The species entered for experiment [10] is Bos taurus. Put plainly: Displacement of [3H]nitrobenzylthiosine from nucleoside transport protein in calf lung membrane at 0.1 mM. The format is cell membranes.

Our source for the Activity and IC50 values is ChEMBL document CHEMBL1144059, “Interference of linoleic acid fraction in some receptor binding assays” (J Nat Prod, 1999).

One may read the IC50 as the midpoint of a concentration-inhibition curve. A high value points to lower potency. For `CCCCC/C=C\C/C=C\CCCCCCCC(=O)O` [LINOLEIC ACID], the Activity in the experiment listed under Bos taurus [1] is 100%; in experiment [2], 3%; in [3] it was 0%; in the experiment filed under Bos taurus [4], below 0%; in the experiment listed under Rattus norvegicus [5] it was above 100%; in experiment [6] it was 85%. For the same compound, the Activity in the experiment listed under Rattus norvegicus [7] came out at 42%; in experiment [8], 143 fmol; in the experiment listed under Rattus norvegicus [9] it was 100%; in the experiment listed under Bos taurus [10], 100%. This compound registered an IC50 at Adenosine receptor A1 of 65 µM.
